The series can be described thus: solvent given as SMILES.

Several values for one entry are separate records, joined by “and”; a condition that tells them apart may be missing. Equal entries are not always repeated.

Turning to `Oc1ccccc1/N=C/c1ccccc1Oc1ccccc1`, the absorption maximum was determined as 353 nm (in C1CCCCC1); 355 nm (in C1CCOC1); 367 nm (in C1COCCO1); 349 nm (in CC#N); 366 nm (in CC(C)=O); 352 nm (in CC(C)CO). This compound registered an absorption maximum (in CC(C)O) of 352 nm; an absorption maximum (in CCCCC) of 355 nm; an absorption maximum (in CCCCCC) of 367 nm; an absorption maximum (in CCCCCCCCO) of 355 nm; an absorption maximum (in CCCCCCCO) of 354 nm; an absorption maximum (in CCCCCCO) of 355 nm. Also, the absorption maximum was 353 nm (in CCCCO); 367 nm (in CCCCOC(C)=O); 351 nm (in CCCO); 350 nm (in CCO); 363 nm (in CCOCC); 349 nm (in CN(C)C=O). The absorption maximum came to 348 nm (in CO); 373 nm (in CS(C)=O); 381 nm (in Cc1ccccc1); 359 nm (in Cc1ccccc1C); 356 nm (in ClC(Cl)Cl); 356 nm (in ClCCl). The absorption maximum runs as follows: (in N#Cc1ccccc1) 357 nm; (in OCCO) 349 nm; (in c1ccccc1) 366 nm.

Take `O=[N+]([O-])c1cc(/N=N/c2cc3c4c(c2)CCCN4CCC3)cc([N+](=O)[O-])c1`: the absorption maximum (in CCOC(C)=O) turned out to be 513 nm.

`O=C1C=C(Nc2cccc(F)c2)C(=O)c2ccccc21` registered an absorption maximum (in CCCCCC) of 440 nm and an absorption maximum (in CO) of 459 nm.

`C#CCOc1ccc(/C=C/C2=[N+]3C(=C(c4ccc(N5CCCCC5)cc4)c4c(C)cc(C)n4[B-]3(F)F)C(C)=C2)cc1` showed an absorption maximum (in CO) of 568 nm.

`O=c1c(Nc2ccccc2)c([O-])c1=[NH+]c1ccccc1`: the absorption maximum by setting is: (in C1CCOC1) 401 nm; (in CC#N) 390 nm; (in CC(C)=O) 398 nm; (in CCO) 393 nm; (in CCOCC) 400 nm; (in CN1CCCC1=O) 393 nm. This compound also displayed an absorption maximum (in CN(C)C=O) of 393 nm, an absorption maximum (in CO) of 390 nm, an absorption maximum (in CS(C)=O) of 378 nm and an absorption maximum (in O) of 374 nm.

On to `Cc1ccccc1-c1c2ccc(=[N+]3CCCCC3)cc-2oc2cc(N3CCCCC3)ccc12`, for which the absorption maximum by setting is: (in CCO) 564 nm; (in ClCCl) 565 nm.

`CC(C)Nc1cc(F)c(C(=O)c2cc(F)c(NC(C)C)cc2F)cc1F` registered an absorption maximum (in CCO) of 357 nm.

Where the note is “in CCO”, `O=c1c2cc(F)c(N3CCOCC3)cc2oc2cc(N3CCOCC3)c(F)cc12` displayed an absorption maximum of 344 nm.

For `CCCBr`, where the note is “in CCCCCC”, the absorption maximum amounted to 208 nm.

As for `CC(C)(C)NC(=O)c1ccc2ccc3cccc4ccc1c2c34`, the absorption maximum (in ClC(Cl)Cl) was 377 nm.

Regarding `CC(C)(C)OC(=O)COc1ccc2c(c1)oc(=O)c1c(=O)oc3ccccc3c12`, the absorption maximum is 366 nm (in CS(C)=O) and 365 nm (in ClCCl).

Consider `CCC1(CC)c2ccccc2-c2c1c1c(c3c2C(CC)(CC)c2cc(/C=C/c4cccs4)ccc2-3)C(CC)(CC)c2ccccc2-1`, for which the absorption maximum (in C1CCOC1) was found to be 382 nm.

`CC(C)(C)c1ccc2c(c1)c1cc(C(C)(C)C)ccc1n2-c1ccccc1-c1nc(-c2ccccc2-n2c3ccc(C(C)(C)C)cc3c3cc(C(C)(C)C)ccc32)nc(-c2ccccc2P(=O)(c2ccccc2)c2ccccc2)n1`: the absorption maximum reads like this: (in C1CCOC1) 343.17 nm; (in CC#N) 340.7 nm; (in CC(C)=O) 343.17 nm; (in CN(C)C=O) 343.17 nm; (in Cc1ccccc1) 340.7 nm; (in ClC(Cl)Cl) 343.17 nm. This compound also came in with an absorption maximum (in ClCCl) of 343.17 nm.

As for `COc1ccc2c(-c3nc(-c4ccccc4F)no3)cc(=O)oc2c1`, the absorption maximum (in CCO) was 333 nm and the absorption maximum (in ClC(Cl)Cl) is listed as 339 nm.

`Cc1oc(-c2ccccc2)nc1C(=O)O`: the absorption maximum came out at 269 nm (in C1CCCCC1); 267 nm (in CC#N); 273 nm (in CCO); 267 nm (in CCOC(C)=O); 273 nm (in O).

In turn, `C#CCn1c2ccccc2c2cc(/C=C/c3c(Cl)c(C)c4n3[B-](F)(F)[N+]3=C(C)C(Cl)=C(C)C3=C4c3ccc(I)cc3)ccc21` displayed an absorption maximum (in CC#N) of 606 nm, an absorption maximum (in CS(C)=O) of 616 nm and an absorption maximum (in ClC(Cl)Cl) of 619 nm.

Regarding `O=c1c2cc(F)ccc2nc2n1[B-](F)(F)[n+]1ccccc1-2`, the absorption maximum reads like this: (in CC#N) 337 nm; (in ClCCl) 350 nm.

For the compound `CCc1ccc(-c2nc(-c3ccc(-n4c5ccccc5c5ccccc54)cc3)cc(-c3ccc(-n4c5ccccc5c5ccccc54)cc3)n2)cc1`, the absorption maximum by setting is: (in C1CCOC1) 343 nm; (in CN(C)C=O) 344 nm; (in Cc1ccccc1) 354 nm; (in ClC(Cl)Cl) 344 nm.

Under “in ClCCl”, `O=Cc1ccc2c(c1)c1ccccc1n2-c1ccc(-c2ccc(-n3c4ccccc4c4cc(C=O)ccc43)cc2)cc1` displayed an absorption maximum of 329 nm.

`CCCc1ccc(C#Cc2cc(C#Cc3ccc(N(C)C)cc3)c3ccc4c(C#Cc5ccc(N(C)C)cc5)cc(C#Cc5ccc(CCC)cc5)c5ccc2c3c54)cc1`: the absorption maximum (in ClCCl) stood at 488 nm.

For `CC1(C)C(/C=C/C2=C(c3ccc(C(=O)O)cc3)C(=C/C=C3/N(CCCCS(=O)(=O)[O-])c4ccccc4C3(C)C)/CCC2)=[N+](CCCCS(=O)(=O)[O-])c2ccccc21`, the absorption maximum (in CO) came to 765 nm.

As for `COc1ccc2ccc([O-])cc2c1`, the absorption maximum (in O) is recorded as 337 nm.

The compound `O=C1C=C(Nc2ccc([N+](=O)[O-])cc2[N+](=O)[O-])C(=O)c2ccccc21` gave an absorption maximum (in CO) of 437 nm.

On to `CCCCCCC(CCCCCC)N1C(=O)c2cccc3c(-c4ccc(OC)c5ccccc45)ccc(c23)C1=O`, for which the absorption maximum runs as follows: (in CCCCCC) 322.6 nm; (in CCCCCCCCCCCCCC) 322.6 nm; (in CCCCCCCCCCCO) 323.8 nm; (in CCCCO) 323.6 nm; (in CN(C)C=O) 323.8 nm; (in Cc1ccccc1) 324 nm. Moreover, the absorption maximum (in ClC(Cl)Cl) worked out at 325 nm.

Turning to `CN(C)c1c2ccccc2cc2ccccc12`, the absorption maximum is recorded as 386 nm (in C1CCCCC1); 386 nm (in C1CCOC1); 387 nm (in C1COCCO1); 386 nm (in CC#N); 385 nm (in CCO); 388 nm (in CN(C)C=O). Further, the absorption maximum runs as follows: (in CO) 384 nm; (in COCCOC) 386 nm; (in CS(C)=O) 390 nm; (in O) 385 nm; (in OCC(O)CO) 393 nm; (in OCCO) 388 nm.

`CCC1=C(C2=C(C3=C(CC)S(=O)(=O)c4cc(-c5ccccc5)ccc43)C(F)(F)C(F)(F)C2(F)F)c2ccc(-c3ccccc3)cc2S1(=O)=O` registered an absorption maximum (in C1COCCO1) of 336 nm.

For the compound `c1ccc(-c2ccc(-c3nc(-c4ccccc4)c(N(c4ccccc4)c4ccccc4)[se]3)cc2)cc1`, the absorption maximum (in ClC(Cl)Cl) was found to be 394 nm.

As for `CCCCCCCCCCCCN1C(=O)c2c(c3ccc4cc(-c5ccccc5)c(OC)cc4c3c3c2ccc2cc(-c4ccccc4)c(OC)cc23)C1=O`, for the setting “in ClCCl”, the absorption maximum is listed as 432 nm.

Take `Nc1ccc2c(C(F)(F)F)cc(=O)oc2c1`: the absorption maximum is, setting by setting: (in C1CCC2CCCCC2C1) 349 nm; (in C1CCCCC1) 348 nm; (in C1COCCO1) 364 nm; (in CC1CCCCC1) 348 nm; (in CC#N) 365 nm and 367 nm; (in CC(C)=O) 371 nm. The absorption maximum amounted to 384 nm (in CC(C)O); 347 nm (in CCC(C)CC); 347 nm (in CCCC(C)C); 347 nm (in CCCCCC); 383 nm (in CCCCCCCCO); 384 nm (in CCCCCCO). Moreover, the absorption maximum runs as follows: (in CCCCO) 383 nm; (in CCO) 383 nm; (in CCOC(C)=O) 368 nm; (in CN(C)C=O) 378 nm; (in CO) 378 nm; (in CS(C)=O) 386 nm.

Turning to `N#Cc1ccc(-c2ccc3c(c2)c2cc(-c4ccc(C#N)cc4)ccc2c2c3nc(-c3ccc(-c4ccc(N(c5ccccc5)c5ccccc5)cc4)cc3)n2-c2ccccc2)cc1`, the absorption maximum came out at 360.44 nm (in C1CCOC1), 360.44 nm (in CC#N), 370.05 nm (in CCCCCC) and 366.21 nm (in CCOCC).

`O=[N+]([O-])c1cccc2c1ccc1[n+]2[B-](F)(F)n2c-1cc1c3ccccc3c3ccccc3c12` displayed an absorption maximum (in ClCCl) of 518 nm.

Consider `CC(C)[Si](C#Cc1c2ccccc2c(C#Cc2c3ccccc3c(C#Cc3c4ccccc4c(C#Cc4c5ccccc5c(C#Cc5c6ccccc6c(C#C[Si](C(C)C)(C(C)C)C(C)C)c6ccccc56)c5ccccc45)c4ccccc34)c3ccccc23)c2ccccc12)(C(C)C)C(C)C`, for which the absorption maximum (in Cc1ccccc1) is on record as 585 nm.

The compound `CCCCn1c(-c2ccc(-c3nnc(-c4ccc5ccccc5c4)o3)cc2)nc(-c2ccccc2)c1-c1ccccc1` yielded an absorption maximum (in ClCCl) of 340 nm.

Regarding `CN(C)c1ccc(C2=Nc3scc(-c4ccc([N+](=O)[O-])cc4)[n+]3[B-](F)(F)O2)cc1`, the absorption maximum reads like this: (in C1CCOC1) 412 nm; (in CC#N) 411 nm; (in Cc1ccccc1) 415 nm; (in ClCCl) 417 nm.

The values are drawn from the Deep4Chem optical property database.
